From patent publication US20120083471A1, “Novel Compounds, Pharmaceutical Compositions Containing Same, Methods of Use for Same, and Methods for Preparing Same” (priority 2008, published 2012) come the findings set out here.

For test [1], the target named is T1, mtGPAT1 (Mus musculus, UniProt Q61586).
T1 construct: from tissue; host or cells: mitochondrial preparation
T1 sequence (Q61586 1-827): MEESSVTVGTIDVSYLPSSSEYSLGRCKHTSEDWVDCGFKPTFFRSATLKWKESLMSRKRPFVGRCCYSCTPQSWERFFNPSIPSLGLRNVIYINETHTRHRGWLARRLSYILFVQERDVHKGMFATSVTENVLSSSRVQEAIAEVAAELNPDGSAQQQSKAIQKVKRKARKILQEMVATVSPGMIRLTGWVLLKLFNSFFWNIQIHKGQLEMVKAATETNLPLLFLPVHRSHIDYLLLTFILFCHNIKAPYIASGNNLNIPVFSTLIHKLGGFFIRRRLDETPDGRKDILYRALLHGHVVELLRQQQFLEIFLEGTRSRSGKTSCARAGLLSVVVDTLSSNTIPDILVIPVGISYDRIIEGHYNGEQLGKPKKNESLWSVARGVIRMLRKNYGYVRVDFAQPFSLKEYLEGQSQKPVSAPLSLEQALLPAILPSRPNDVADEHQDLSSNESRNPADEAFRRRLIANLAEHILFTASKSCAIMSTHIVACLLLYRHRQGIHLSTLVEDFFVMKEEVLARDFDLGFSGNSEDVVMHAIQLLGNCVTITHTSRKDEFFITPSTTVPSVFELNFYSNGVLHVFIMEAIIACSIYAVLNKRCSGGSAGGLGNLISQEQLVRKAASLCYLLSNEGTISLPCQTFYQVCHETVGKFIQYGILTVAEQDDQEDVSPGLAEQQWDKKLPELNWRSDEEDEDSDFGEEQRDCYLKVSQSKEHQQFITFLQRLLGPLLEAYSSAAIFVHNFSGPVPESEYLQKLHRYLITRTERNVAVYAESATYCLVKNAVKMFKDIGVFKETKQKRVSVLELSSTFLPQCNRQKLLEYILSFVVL
Nature of the test: In vitro mtGPAT inhibition: acylation of 14C-glycerol 3-phosphate with palmitoyl-CoA, scintillation counting. The class given is biochemical. The method, then: The compounds produced as described above were evaluated for their ability to inhibit the acylation of glycerol-3-phosphate in vitro. The acylation reaction between ^14C-labelled glycerol-3-phosphate and palmitoyl-CoA, initiated by adding mtGPAT, was measured in the presence of varying concentrations of the inhibitor by scintillation counting as described in more detail below.
A mitochondrial preparation of glycerol 3-phosphate acyltransferase was added to the incubation mixture containing ^14C-labeled glycerol 3-phosphate, palmitoyl-CoA, and varying inhibitor concentrations to initiate the reaction. After ten min, the reaction was terminated by adding chloroform, methanol, and 1% perchloric acid. Five minutes later, more chloroform and perchloric acid were added, and the upper aqueous layer was removed. After washing three times with 1% perchloric acid, the organic layer was evaporated under nitrogen, and the amount of ^14C present was counted to determine the extent of reaction inhibition. Data points were recorded in triplicate, and IC50 values were calculated based on the amount of test inhibitor necessary to produce 50% of mtGPAT activity observed in the absence of inhibitor but in the presence of DMSO vehicle control.

The subject of test [2] is FAO. Nature of the test: FAO (SC 150 and Max) entries of the compound data sheets.
The mark [3] stands for this setting: compounds 4a-t and 7a-t, read-out: GPAT IC50.
[4] abbreviates: Table 1, sulfonamides 5a-f and 13a-f, triplicate, read-out: IC50 (μM) ± SD, In Vitro Anti-mtGPAT1 Activity.
Where [5] appears, read: Table 2, sulfonamides 15a-i and 17a-f, triplicate, read-out: IC50 (μM) ± SD, In Vitro Anti-mtGPAT1 Activity.
[6] abbreviates: Table 3, sulfonamides 21a-c and 24a-f, triplicate, read-out: IC50 (μM) ± SD, In Vitro Anti-mtGPAT1 Activity.

Where two headings read alike, the source gives them in different places.

The term IC50 denotes the point on the concentration scale where inhibition reaches its midpoint. Regarding `CCCCCCCCS(=O)(=O)Nc1cc(-c2ccc(Cl)cc2)ccc1C(=O)O`, the IC50 in test [1] (setting [3]) amounted to 18.4 µM. In addition, the “FAO SC 150” value in test [2] is “FAS (IC50) Not Tested CPT I Stim Not Tested FAO SC 150 Neg SA/MH (MIC) ug/ml”. On the same counts, the results for `CCCCCCCCS(=O)(=O)Nc1cc(-c2cccc(Cl)c2)ccc1C(=O)O` are 16 µM and “FAS (IC50) Not Tested CPT I Stim Not Tested FAO SC 150 Neg SA/MH (MIC) ug/ml”. For `CCCCCCCCS(=O)(=O)Nc1cc(-c2cccs2)ccc1C(=O)O`, the IC50 in test [1] (setting [3]) was 22.5 µM. In test [2], the “FAO SC 150” value is on record as “FAS (IC50) Not Tested CPT I Stim Not Tested FAO SC 150 Neg SA/MH (MIC) ug/ml”. The matching figures for `CCCCCCCCS(=O)(=O)Nc1cc(-c2cccnc2)ccc1C(=O)O`: 65.8 µM and “FAS (IC50) Not Tested CPT I Stim Not Tested FAO SC 150 Neg SA/MH (MIC) ug/ml”.

For `CCCCCCCCS(=O)(=O)Nc1cc(-c2ccc(-c3ccccc3)cc2)ccc1C(=O)O`, the IC50 in test [1] (setting [3]) came out at 17.4 µM. Besides, in test [2], the “FAO SC 150” value is “FAS (IC50) Not Tested CPT I Stim Not Tested FAO SC 150 Neg SA/MH (MIC) ug/ml”. With `CCCCCCCCS(=O)(=O)Nc1cc(-c2ccccc2-c2ccccc2)ccc1C(=O)O`, in test [1] (setting [3]), the IC50 amounted to 18 µM. Besides, the “FAO SC 150” value in test [2] is on record as “FAS (IC50) Not Tested CPT I Stim Not Tested FAO SC 150 Neg SA/MH (MIC) ug/ml”.

On to `CCCCCCCCS(=O)(=O)Nc1cc(-c2ccccc2OC)ccc1C(=O)O`, for which the 50% inhibitory concentration (IC50) in test [1] (setting [3]) was 17.6 µM. In addition, the “FAO SC 150” value in test [2] was “FAS (IC50) Not Tested CPT I Stim Not Tested FAO SC 150 Neg SA/MH (MIC) ug/ml”. On the same counts, the results for `CCCCCCCCS(=O)(=O)Nc1cc(-c2ccc(OC)cc2)ccc1C(=O)O` are 16 µM and “FAS (IC50) Not Tested CPT I Stim Not Tested FAO SC 150 Neg SA/MH (MIC) ug/ml”. As for `CCCCCCCCS(=O)(=O)Nc1ccc(-c2ccc(Cl)cc2)cc1C(=O)O`, the concentration for half-maximal inhibition (IC50) in test [1] (setting [3]) stood at 13.4 µM. In addition, the “FAO SC 150” value in test [2] was “FAS (IC50) Not Tested CPT I Stim Not Tested FAO SC 150 Neg SA/MH (MIC) ug/ml”. For `CCCCCCCCS(=O)(=O)Nc1ccc(-c2cccc(Cl)c2)cc1C(=O)O`, the IC50 in test [1] (setting [3]) was determined as 13 µM. In test [2], the “FAO SC 150” value is recorded as “FAS (IC50) Not Tested CPT I Stim Not Tested FAO SC 150 Neg SA/MH (MIC) ug/ml”. In the case of `CCCCCCCCS(=O)(=O)Nc1ccc(-c2ccccc2Cl)cc1C(=O)O`, the IC50 in test [1] (setting [3]) is 14.4 µM. Besides, the “FAO SC 150” value in test [2] is “FAS (IC50) Not Tested CPT I Stim Not Tested FAO SC 150 Neg SA/MH (MIC) ug/ml”. On the same counts, the results for `CCCCCCCCS(=O)(=O)Nc1ccc(-c2cccc(C(C)=O)c2)cc1C(=O)O` are 28 µM and “FAS (IC50) Not Tested CPT I Stim Not Tested FAO SC 150 Neg SA/MH (MIC) ug/ml”. With `CCCCCCCCS(=O)(=O)Nc1ccc(-c2ccc(C(C)=O)cc2)cc1C(=O)O`, the IC50 in test [1] (setting [3]) was 702 µM. Besides, in test [2], the “FAO SC 150” value is reported as “FAS (IC50) Not Tested CPT I Stim Not Tested FAO SC 150 Neg SA/MH (MIC) ug/ml”. The matching figures for `CCCCCCCCS(=O)(=O)Nc1ccc(-c2ccccc2-c2ccccc2)cc1C(=O)O`: 13.5 µM and “FAS (IC50) Not Tested CPT I Stim Not Tested FAO SC 150 Neg SA/MH (MIC) ug/ml”. As to `CCCCCCCCS(=O)(=O)Nc1ccc(-c2cccc(O)c2)cc1C(=O)O`, in test [1] (setting [3]), the IC50 was determined as 57.7 µM. With `CCCCCCCCS(=O)(=O)Nc1ccc(-c2ccc(F)cc2)cc1C(=O)O`, the IC50 in test [1] (setting [3]) was found to be 20.6 µM. Still for that read-out and setting: next, `CCCCCCCCS(=O)(=O)Nc1ccc(-c2cc(Cl)cc(Cl)c2)cc1C(=O)O`: 19 µM; `CCCCCCCCS(=O)(=O)Nc1cc(-c2ccccc2F)ccc1C(=O)O`: 55.7 µM; `CCCCCCCCS(=O)(=O)Nc1cc(-c2cccc(F)c2)ccc1C(=O)O`: 28.7 µM. As to `CCCCCCCCS(=O)(=O)Nc1cc(-c2ccc(F)cc2)ccc1C(=O)O`, in test [1] (setting [3]), the IC50 was 25.3 µM. For the molecule `CCCCCCCCS(=O)(=O)Nc1cc(-c2cc(Cl)cc(Cl)c2)ccc1C(=O)O`, in test [1] (setting [3]), the IC50 came to 19.2 µM.

With `CCCCCCCCS(=O)(=O)Nc1cc(-c2ccc(Cl)cc2Cl)ccc1C(=O)O`, the 50% inhibitory concentration (IC50) in test [1] (setting [3]) came out at 18.3 µM. Same read-out and setting: next, `CCCCCCCCS(=O)(=O)Nc1cc(-c2ccccc2O)ccc1C(=O)O`: 62.6 µM; `CCCCCCCCS(=O)(=O)Nc1cc(-c2cccc(O)c2)ccc1C(=O)O`: 55.5 µM. Same read-out and setting: next, `CCCCCCCCS(=O)(=O)Nc1ccc(-c2ccc(O)cc2)cc1C(=O)O`: 60.9 µM; `CCCCCCCCS(=O)(=O)Nc1cc(-c2ccc(O)cc2)ccc1C(=O)O`: 66.1 µM.

For `CCCCCS(=O)(=O)Nc1ccccc1CP(=O)(O)O` [Compound 13a, 2-(Pentylsulfonamido)benzylphosphonic acid], in test [1] (setting [4]), the IC50 came out at 41.4 ± 8.4 µM. As for `CCCCCCCCCS(=O)(=O)Nc1ccccc1CP(=O)(O)O` [Compound 13b, 2-(Nonylsulfonamido)benzylphosphonic acid], in test [1] (setting [4]), the IC50 is 30.6 µM. Still for that read-out and setting: next, `CCCCCCCCCS(=O)(=O)Nc1ccc(CP(=O)(O)O)cc1` [Compound 13f, 4-(Nonylsulfonamido)benzylphosphonic acid]: 30.7 µM. For `CCCCCCCCCS(=O)(=O)Nc1ccc(C(=O)O)cc1` [Compound 15a, 4-(Nonylsulfonamido)benzoic acid], in test [1] (setting [5]), the IC50 worked out at 29.1 ± 4.3 µM. Take `O=C(O)c1ccc(NS(=O)(=O)c2ccccc2)cc1` [Compound 15b, 4-(Phenylsulfonamido)benzoic acid]: the IC50 in test [1] (setting [5]) was determined as 41.9 ± 5.3 µM. Consider `O=C(O)c1ccc(NS(=O)(=O)c2ccc(Cl)cc2)cc1` [Compound 15c, 4-(4-Chlorophenylsulfonamido)benzoic acid], for which the half-inhibitory concentration (IC50) in test [1] (setting [5]) stood at 33.7 ± 1.3 µM.

As to `O=C(O)c1cccc(NS(=O)(=O)c2ccccc2)c1` [Compound 15e, 3-(Phenylsulfonamido)benzoic acid], the concentration for half-maximal inhibition (IC50) in test [1] (setting [5]) is 38.3 ± 7.6 µM. Same read-out and setting: next, `O=C(O)c1cccc(NS(=O)(=O)c2ccc(Cl)cc2)c1` [Compound 15f, 3-(4-Chlorophenylsulfonamido)benzoic acid]: 23.6 ± 1.2 µM; `O=C(O)c1ccccc1NS(=O)(=O)c1ccc(Cl)cc1` [Compound 15i, 2-(4-Chlorophenylsulfonamido)benzoic acid]: 33.5 ± 2.5 µM.

Consider `O=C(O)c1ccc(NS(=O)(=O)Cc2ccccc2)cc1` [Compound 17a, 4-(Phenylmethylsulfonamido)benzoic acid], for which the IC50 in test [1] (setting [5]) was determined as 64.5 ± 11.6 µM. On to `O=C(O)c1ccc(NS(=O)(=O)CCc2ccccc2)cc1` [Compound 17b, 4-(2-Phenylethylsulfonamido)benzoic acid], for which the IC50 in test [1] (setting [5]) is 63 ± 12.9 µM.

In the case of `O=C(O)c1cccc(NS(=O)(=O)Cc2ccccc2)c1` [Compound 17c, 3-(Phenylmethylsulfonamido)benzoic acid], in test [1] (setting [5]), the IC50 came out at 52.1 ± 9 µM. Still for that read-out and setting: next, `O=C(O)c1cccc(NS(=O)(=O)CCc2ccccc2)c1` [Compound 17d, 3-(2-Phenylethylsulfonamido)benzoic acid]: 50.3 ± 4.4 µM; `O=C(O)c1ccccc1NS(=O)(=O)Cc1ccccc1` [Compound 17e, 2-(Phenylmethylsulfonamido)benzoic acid]: 40.7 ± 1.2 µM; `O=C(O)c1ccccc1NS(=O)(=O)CCc1ccccc1` [Compound 17f, 2-(2-Phenylethylsulfonamido)benzoic acid]: 46.4 ± 4.5 µM. With `CCCCCCCCS(=O)(=O)Nc1ccc(P(=O)(O)O)cc1` [Compound 21a, 4-(Octylsulfonamido)phenylphosphonic acid], the IC50 in test [1] (setting [6]) amounted to 33.3 ± 3.8 µM. Still for that read-out and setting: next, `CCCCCCCCS(=O)(=O)Nc1cccc(P(=O)(O)O)c1` [Compound 21b, 3-(Octylsulfonamido)phenylphosphonic acid]: 25.3 ± 5.4 µM; `CCCCCCCCS(=O)(=O)Nc1ccccc1P(=O)(O)O` [Compound 21c, 2-(Octylsulfonamido)phenylphosphonic acid]: 25.7 ± 2.5 µM. Take `CS(=O)(=O)Nc1ccccc1C(=O)O` [Compound 24a, 2-(Methylsulfonamido)benzoic acid]: the IC50 in test [1] (setting [6]) came out at 28.6 ± 4.6 µM. As for `CCCCCCCCCS(=O)(=O)Nc1ccc(Cl)cc1C(=O)O` [Compound 24d, 5-Chloro-2-(nonylsulfonamido)benzoic acid], in test [1] (setting [6]), the IC50 turned out to be 11.5 ± 0.7 µM.
